Paper PMC11423305, “Structure-Based Design of CBP/EP300 Degraders: When Cooperativity Overcomes Affinity” (JACS Au, 2024)
pKd: −log10 of the molar value. “Also recorded” adds a separate entry of the source.

Tests used:
[1] = test system: LNCaP cells; test: Cell viability (resazurin), LNCaP; format: cell-based; details: 3 day treatment
Method: normalized to DMSO treated lanes on the same membrane. (Several compounds were
measured at the same time, so DMSO treated lanes are replicated here between
Figure S5. Anti-proliferation in additional cell lines. LNCaP (A and C) and SH-SY5Y (B)
cell viability following 3 day compound treatment, and LNCaP following 6 day treatment
(D), determined using resazurin.
After 3 days of treatment, dCE-2 only has a mild effect on the proliferation of LNCaP and
SH-SY5Y cells (Figure S5A and B).
the new CBP/EP300 PROTACs CBPD -268 and CBPD-4092,3 which have enhanced anti-
proliferative activity in LNcaP cells relative to their parent inhibitor s. However, although
these PROTACs have effects at very low concentrations, their effect plateaus and a
substantial proportion of cells remain viable at high compound concentrations. Similarly,
degradation of CBP and EP300, the maximal effect of this PROTAC is also limited under
the conditions we used (Figure S5C). Through this work it was clear to us that these […]
proliferation. […]
concentrations of CRBN, as determined through competition with acetylated peptide […]
Fluorescence (excitation = 560 nm, emission = 590 nm) was measured using a
spectraMax M5 microplate reader (Molecular Devices) and cell viability was calculated […]
values were calculated as the concentration required to inhibit cell viability to 50 % […]

[2] = molecular target: CRBN and CBP-BRD (Homo sapiens, UniProt Q92793+Q96SW2); test: FluoPPI cellular ternary complex formation, CBP-BRD; format: cell-based; details: U2OS cells, 6 h
CRBN and CBP-BRD, sequence (Q92793 1081-1211): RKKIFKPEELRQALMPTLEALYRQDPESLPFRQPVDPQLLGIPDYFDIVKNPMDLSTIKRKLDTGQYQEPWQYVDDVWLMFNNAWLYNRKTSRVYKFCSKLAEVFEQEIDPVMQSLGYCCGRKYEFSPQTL
CRBN and CBP-BRD, sequence (Q96SW2 whole entry): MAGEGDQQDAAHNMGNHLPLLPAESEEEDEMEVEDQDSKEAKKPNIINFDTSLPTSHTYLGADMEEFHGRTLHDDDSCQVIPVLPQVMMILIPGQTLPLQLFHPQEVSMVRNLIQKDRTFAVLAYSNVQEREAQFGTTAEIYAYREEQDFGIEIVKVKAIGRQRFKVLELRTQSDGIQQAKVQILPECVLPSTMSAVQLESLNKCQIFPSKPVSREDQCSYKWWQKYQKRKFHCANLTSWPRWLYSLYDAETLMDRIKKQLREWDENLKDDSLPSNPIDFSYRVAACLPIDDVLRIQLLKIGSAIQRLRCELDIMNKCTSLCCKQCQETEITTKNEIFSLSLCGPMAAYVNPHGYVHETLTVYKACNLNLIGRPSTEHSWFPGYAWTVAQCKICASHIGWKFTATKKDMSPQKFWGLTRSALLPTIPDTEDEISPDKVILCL

[3] = molecular target: T1, EP300-BRD (Homo sapiens, UniProt Q09472); test: BROMOscan ligand binding site-directed competition assay, EP300
T1 construct: T7 phage display fusion with DNA tag for qPCR; purchased Eurofins Discovery (BROMOscan service); host or cells: E. coli infected with T7 phage
T1 sequence (Q09472 1049-1156 limits assumed): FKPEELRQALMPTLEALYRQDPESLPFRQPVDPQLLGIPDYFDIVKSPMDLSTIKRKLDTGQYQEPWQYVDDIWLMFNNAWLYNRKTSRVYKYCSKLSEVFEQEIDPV
Method: 2. Methods and General Procedures […]
KD values were determined using BROMOscan™ technology, carried out by Eurofins […]
Discovery according to their standard protocol. Briefly E. coli were infected with T7 phage […]
strains displaying bromodomains and bromodomain protein was subsequently purified […]
through lysis, centrifugation and filtration. Affinity resins were generated by incubation of […]
streptavidin-coated magnetic beads with biotinylated small molecules or acetylated […]
peptide ligands. Binding reactions were assembled by combining the bromodomains and […]
liganded affinity beads in binding buffer (17 % SeaBlock, 0.33x PBS, 0.04 % Tween 20, […]
0.02 % BSA, 0.004 % sodium azide and 7.4 mM DTT) with compounds (11-point, 3-fold […]
dilution series) added to give a final DMSO concentration of 0.09 %. Assay plates were […]
incubated for 1 h, prior to washing and elution of beads. The bromodomain concentration […]
in the eluates was measured by qPCR of the DNA tag on the bromodomain.
KD values were calculated with a standard dose-response curve fitted using the Hill […]
Response = Background + Signal − Background […]
The Hill Slope was set to -1 and curves fitted using a non-linear least square fit with the Levenberg-Marquardt algorithm.
Ligand efficiency (LE) was calculated as follows: LE = 1.4(pIC50)/N

[4] = molecular target: CRBN and CBP catalytic core (Homo sapiens, UniProt Q92793+Q96SW2); test: FluoPPI cellular ternary complex formation, CBP catalytic core; format: cell-based; details: U2OS cells, 6 h
CRBN and CBP catalytic core, sequence (Q92793 1081-1700): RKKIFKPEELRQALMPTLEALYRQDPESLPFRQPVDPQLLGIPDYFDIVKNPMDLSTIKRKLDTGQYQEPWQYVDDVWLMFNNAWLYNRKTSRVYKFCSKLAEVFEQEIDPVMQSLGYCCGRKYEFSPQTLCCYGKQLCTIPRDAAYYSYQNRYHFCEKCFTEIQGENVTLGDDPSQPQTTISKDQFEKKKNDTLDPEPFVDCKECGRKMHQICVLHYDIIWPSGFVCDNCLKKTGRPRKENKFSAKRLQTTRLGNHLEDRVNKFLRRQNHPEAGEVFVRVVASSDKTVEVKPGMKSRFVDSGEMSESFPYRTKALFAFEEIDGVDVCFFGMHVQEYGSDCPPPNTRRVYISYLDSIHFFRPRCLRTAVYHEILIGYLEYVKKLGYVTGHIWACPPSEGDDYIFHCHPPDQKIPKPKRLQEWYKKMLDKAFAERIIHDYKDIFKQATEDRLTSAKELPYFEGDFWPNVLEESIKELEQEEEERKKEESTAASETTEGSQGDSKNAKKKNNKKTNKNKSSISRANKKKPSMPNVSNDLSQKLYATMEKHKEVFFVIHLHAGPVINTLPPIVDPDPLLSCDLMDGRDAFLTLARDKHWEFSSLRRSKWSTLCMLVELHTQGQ
CRBN and CBP catalytic core, sequence (Q96SW2 whole entry): as the sequence (Q96SW2 whole entry) above

- ternary complex formation in cells with CRBN and CBP-BRD [2]: good ternary complex formation
- pKd ([3]; BROMOscan): < 5.00
- loss of potency compared to parent compound 3, EP300 ([3]; BROMOscan KD ratio): > 400 fold
- ternary complex formation in cells with CBP catalytic core [4]: able to induce ternary complex formation
SMILES: Cc1cc2c(NC(=O)c3cc(NC(=O)CCCCCCCCCCNc4cccc5c4C(=O)N(C4CCC(=O)NC4=O)C5=O)cc(-c4ccn(C)n4)c3)cccc2nn1 (centres unmarked) [dCE-2]
- effect on proliferation of LNCaP cells [1]: mild effect; also recorded: limited effect
